Data set [1] in a line: Aqueous stability of curcumin in DPBS (absorbance at 430 nm). Conditions: after 1 h at 37° C. incubation. It counts as physicochemical. The protocol: The stability of curcumin was monitored by measuring absorbance at 430 nm for both the inclusion complex and free curcumin dissolved in DPBS (DPBS diluted with ethanol). The percentage of remaining curcumin was estimated by measuring the absorbance compared to the initial absorbance over a 6 h period. […] GelMA-β-(D) and curcumin inclusion complex preparation: […] For comparison of curcumin solubility, GelMA was used as a control and the resulting solution was named as GelMA/CUR. After the equilibrium was reached, the suspension was centrifuged at 12,000 rpm for 10 min; supernatants were withdrawn and further filtered through a 0.22 μm film. The inclusion complex solutions were measured for absorbance at 430 nm to assess solubility. The prepared GelMA-β-CD/CUR solution was also used for aqueous stability study compared to free curcumin dissolved in DPBS (DPBS:ethanol as 4:1). The GelMA-β-CD/CUR solutions were freeze-dried for additional FTIR and DSC analysis.

Data set [2] in a line: Curcumin loading capacity / solubility in GelMA and GelMA-β-CD solution (absorbance at 430 nm). In kind it is physicochemical. The protocol:
Curcumin was selected as a model for water-insoluble drug or therapeutic agent 26 (FIG. 11) to test the loading efficacy of GelMA-β-CD. Aqueous drug suspension was used to compare the loading capacity relative to unmodified GelMA. […] The intermolecular interaction between CD and curcumin primarily dictated the desirable properties of water-insoluble drug 26 delivery.
GelMA-β-(D) and curcumin inclusion complex preparation: To prepare the inclusion complex, excess amount of curcumin (5 mg) was added to pre-dissolved GelMA-β-CD solution in 1 mL DPBS (20%, g/mL) and stirred at 37° C. for 30 min to form the inclusion complex solution where curcumin could be encapsulated within the cavity of CD and the resulting solution was named as GelMA-β-CD/CUR. For comparison of curcumin solubility, GelMA was used as a control and the resulting solution was named as GelMA/CUR. After the equilibrium was reached, the suspension was centrifuged at 12,000 rpm for 10 min; supernatants were withdrawn and further filtered through a 0.22 μm film. The inclusion complex solutions were measured for absorbance at 430 nm to assess solubility. The prepared GelMA-β-CD/CUR solution was also used for aqueous stability study compared to free curcumin dissolved in DPBS (DPBS:ethanol as 4:1). The GelMA-β-CD/CUR solutions were freeze-dried for additional FTIR and DSC analysis.

For the molecule `COc1cc(/C=C/C(=O)CC(=O)/C=C/c2ccc(O)c(OC)c2)ccc1O` [curcumin], the “Percentage of remaining curcumin” value in data set [1] is listed as “approximately 45%”.
gelatin methacryloyl [GelMA]: the “Loading capacity (solubility) of curcumin” value in data set [2] came out at 84.8 ± 13.5 µg/mL.

Values taken from US12515032B2, “Gelatin methacryloyl-based microneedle patches for delivery of water-insoluble drugs” (THE REGENTS OF THE UNIVERSITY OF CALIFORNIA, priority 2020, dated 2026).
